The results in this text go back to ChEMBL document CHEMBL1135294, “Synthesis of a molecular mimic of the Glc1Man9 oligoside as potential inhibitor of calnexin binding to DeltaF508 CFTR protein” (Bioorg Med Chem Lett, 2002).

This assay concerns the target T1, Calnexin (Homo sapiens, UniProt P27824).
T1 sequence (P27824 whole entry): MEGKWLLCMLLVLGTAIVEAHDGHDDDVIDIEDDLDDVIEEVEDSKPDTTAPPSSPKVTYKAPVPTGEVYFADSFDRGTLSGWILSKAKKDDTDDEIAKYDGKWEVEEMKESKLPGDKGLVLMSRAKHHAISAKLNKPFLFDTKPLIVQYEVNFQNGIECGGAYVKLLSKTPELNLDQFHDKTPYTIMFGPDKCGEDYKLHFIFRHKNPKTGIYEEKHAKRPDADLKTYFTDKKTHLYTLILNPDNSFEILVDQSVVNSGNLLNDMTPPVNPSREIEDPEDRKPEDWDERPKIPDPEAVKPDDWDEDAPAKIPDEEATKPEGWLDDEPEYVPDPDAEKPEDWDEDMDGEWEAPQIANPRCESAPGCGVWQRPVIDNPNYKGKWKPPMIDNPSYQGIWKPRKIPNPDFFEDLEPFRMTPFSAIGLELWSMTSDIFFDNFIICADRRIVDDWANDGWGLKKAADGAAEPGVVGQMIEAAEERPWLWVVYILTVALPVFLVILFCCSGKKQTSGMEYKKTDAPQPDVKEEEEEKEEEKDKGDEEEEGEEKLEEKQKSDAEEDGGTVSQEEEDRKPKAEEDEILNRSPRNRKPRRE
Put plainly: Compound was tested for its ability to inhibit binding of [3H]- Glc1Man9 GlcNAc2 to GST-fused calnexin immobilized on glutathione-agarose.

Turning to `O=C(NCC(CNC(=O)OCCNC(=O)O[C@H]1O[C@@H](CO)[C@@H](O)[C@H](O)[C@H]1O)OC(=O)NC(O)NC(=O)OCCOCCNC(=O)O[C@H]1C[C@@H](CO)[C@@H](O)[C@H](O[C@H]2O[C@@H](CO)[C@@H](O)[C@H](O)[C@@H]2O)[C@H]1O)OCCNC(=O)O[C@H]1O[C@@H](CO)[C@@H](O)[C@H](O)[C@H]1O` (stereo partly specified), the IC50 (in general, the midpoint of a concentration-inhibition curve) was 300 µM.
